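Cultured in 96-well plates, cells were exposed to test compound for 48 hours across five concentrations. At the GI50, growth is halved.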 Activity calls are given as the source filed them. No stated cut-off is given here; in the data, active = GI50 up to about 1.1 µM and inactive = higher.
Experiments:
Assay in all cases: DTP human tumour cell line panel, 48 h
[1] = system: NCI-H460
[2] = system: MCF7
[3] = system: UO-31
[4] = system: EKVX
[5] = system: HL-60
[6] = system: HT-29
[7] = system: M14
[8] = system: A549
[9] = system: OVCAR-5
[10] = system: TK-10
[11] = system: ACHN
[12] = system: Hs-578T
[13] = system: UACC-62
[14] = system: MDA-N
[15] = system: SF-295
[16] = system: Malme-3M
[17] = system: LOX IMVI
[18] = system: OVCAR-4
[19] = system: SK-OV-3
[20] = system: SR

Compound | GI50 [1] | GI50 [2] | GI50 [3] | GI50 [4] | GI50 [5] | GI50 [6] | GI50 [7] | GI50 [8] | GI50 [9] | GI50 [10] | GI50 [11] | GI50 [12] | GI50 [13] | GI50 [14] | GI50 [15] | GI50 [16] | GI50 [17] | GI50 [18] | GI50 [19] | GI50 [20]
CCOC(=O)c1c(N=C(S)Nc2ccc(Cl)cc2)sc2c1CCN(C)C2 | 94 µM (inactive) | > 100 µM (inactive) | 83 µM (inactive) | > 100 µM (inactive) | 32.9 µM (inactive) | > 100 µM (inactive) | > 100 µM (inactive) | > 100 µM (inactive) | > 100 µM (inactive) | > 100 µM (inactive) | > 100 µM (inactive) | > 100 µM (inactive) | > 100 µM (inactive) | > 100 µM (inactive) | > 100 µM (inactive) | – | – | – | – | –
Nc1ccc(Oc2ccc(C34CC5C6CC7(c8ccc(Oc9ccc(N)cc9)cc8)CC5C(C3)C(C7)C6C4)cc2)cc1 | > 100 µM (inactive) | > 100 µM (inactive) | > 100 µM (inactive) | > 100 µM (inactive) | > 100 µM (inactive) | > 100 µM (inactive) | > 100 µM (inactive) | > 100 µM (inactive) | > 100 µM (inactive) | > 100 µM (inactive) | > 100 µM (inactive) | > 100 µM (inactive) | > 100 µM (inactive) | > 100 µM (inactive) | > 100 µM (inactive) | > 100 µM (inactive) | > 100 µM (inactive) | > 100 µM (inactive) | – | –
COC(=O)c1c(O)ccc2c1c1c(n2-c2ccc(OC)cc2)C(=O)c2ccccc2C1=O | 5.04 µM (inactive) | 16.6 µM (inactive) | 11.9 µM (inactive) | 16.6 µM (inactive) | > 100 µM (inactive) | 4.14 µM (inactive) | 63.2 µM (inactive) | 10.1 µM (inactive) | 30.7 µM (inactive) | 12 µM (inactive) | 12.8 µM (inactive) | 16.9 µM (inactive) | – | 57.1 µM (inactive) | 18.7 µM (inactive) | 24.4 µM (inactive) | 21.7 µM (inactive) | 18.6 µM (inactive) | 19.3 µM (inactive) | –
Cc1ccc(NNc2cc(=O)[nH]c(=O)[nH]2)cc1Cl | 33.2 µM (inactive) | – | 3.25 µM (inactive) | – | 3.08 µM (inactive) | 15 µM (inactive) | 13.7 µM (inactive) | 29 µM (inactive) | 73.8 µM (inactive) | 19.1 µM (inactive) | 9.42 µM (inactive) | 83.2 µM (inactive) | 18.3 µM (inactive) | 15.2 µM (inactive) | 37.5 µM (inactive) | 17.8 µM (inactive) | 5.71 µM (inactive) | 14.7 µM (inactive) | 41.4 µM (inactive) | 12.1 µM (inactive)
O=C1N[C@@H](COc2ccc(/C=N/c3ccc(CCc4ccc(/N=C/c5ccc(OC[C@@H]6COC(=O)N6)cc5)cc4)cc3)cc2)CO1 | – | – | > 100 µM (inactive) | > 100 µM (inactive) | > 100 µM (inactive) | > 100 µM (inactive) | > 100 µM (inactive) | > 100 µM (inactive) | > 100 µM (inactive) | > 100 µM (inactive) | > 100 µM (inactive) | > 100 µM (inactive) | > 100 µM (inactive) | > 100 µM (inactive) | > 100 µM (inactive) | > 100 µM (inactive) | > 100 µM (inactive) | > 100 µM (inactive) | > 100 µM (inactive) | > 100 µM (inactive)
COC(=O)C12OC(C)(C(CC(=O)OC(C)(C)C)C1=O)C1C(=O)N(c3ccccc3)C(=O)C12 (stereo not drawn) | > 100 µM (inactive) | – | > 100 µM (inactive) | – | – | > 100 µM (inactive) | > 100 µM (inactive) | > 100 µM (inactive) | > 100 µM (inactive) | > 100 µM (inactive) | > 100 µM (inactive) | > 100 µM (inactive) | > 100 µM (inactive) | > 100 µM (inactive) | > 100 µM (inactive) | > 100 µM (inactive) | > 100 µM (inactive) | > 100 µM (inactive) | > 100 µM (inactive) | > 100 µM (inactive)
C=CCCON(C(=O)OC(C)(C)C)C(C)(C)C | > 100 µM (inactive) | – | > 100 µM (inactive) | > 100 µM (inactive) | > 100 µM (inactive) | > 100 µM (inactive) | > 100 µM (inactive) | > 100 µM (inactive) | > 100 µM (inactive) | > 100 µM (inactive) | > 100 µM (inactive) | > 100 µM (inactive) | > 100 µM (inactive) | > 100 µM (inactive) | > 100 µM (inactive) | > 100 µM (inactive) | > 100 µM (inactive) | – | > 100 µM (inactive) | –
C[N+](C)(C)C1=NNC2=Nc3ccccc3SC2=C1 | 19 µM (inactive) | 18.6 µM (inactive) | 15 µM (inactive) | 4.92 µM (inactive) | 54.1 µM (inactive) | 13.5 µM (inactive) | 15.7 µM (inactive) | 23.9 µM (inactive) | 17.7 µM (inactive) | 37.1 µM (inactive) | 16 µM (inactive) | 30 µM (inactive) | 17 µM (inactive) | 17.8 µM (inactive) | 9.42 µM (inactive) | 19.8 µM (inactive) | 18.8 µM (inactive) | 19.7 µM (inactive) | 23.6 µM (inactive) | –
CC1(C)OC1COc1c2occc2cc2ccc(=O)oc12 (stereo not drawn) | 40.6 µM (inactive) | > 100 µM (inactive) | 72.4 µM (inactive) | 58.6 µM (inactive) | 70.5 µM (inactive) | > 100 µM (inactive) | > 100 µM (inactive) | 67.6 µM (inactive) | > 100 µM (inactive) | – | > 100 µM (inactive) | > 100 µM (inactive) | 33.1 µM (inactive) | > 100 µM (inactive) | > 100 µM (inactive) | > 100 µM (inactive) | > 100 µM (inactive) | > 100 µM (inactive) | – | –
COc1ccc2nc3ccccc3c(NCCCCCCN(CCCl)CCCl)c2c1 | 0.0346 µM (active) | 0.01 µM (active) | 0.123 µM (active) | 0.895 µM (active) | 0.0122 µM (active) | 0.0248 µM (active) | 0.0946 µM (active) | 0.054 µM (active) | 0.45 µM (active) | 1.04 µM (active) | 0.0184 µM (active) | – | 0.0628 µM (active) | 0.057 µM (active) | 0.0767 µM (active) | 0.537 µM (active) | 0.0199 µM (active) | 0.158 µM (active) | 0.226 µM (active) | 0.0115 µM (active)
NC(Cc1cc(I)c(Oc2ccc(O)c(I)c2)c(I)c1)C(=O)O (stereo not drawn) [RATHYRONINE] | – | 41.6 µM (inactive) | > 100 µM (inactive) | > 100 µM (inactive) | – | > 100 µM (inactive) | > 100 µM (inactive) | > 100 µM (inactive) | > 100 µM (inactive) | 42 µM (inactive) | > 100 µM (inactive) | 37.9 µM (inactive) | 64.4 µM (inactive) | > 100 µM (inactive) | > 100 µM (inactive) | 36.8 µM (inactive) | 34.8 µM (inactive) | > 100 µM (inactive) | > 100 µM (inactive) | –

— ChEMBL document CHEMBL1201862, “PubChem BioAssay data set” (2004)
